Data from EP0126849A1, “Pharmacologically active N-amino hydantoin derivatives, their synthesis and intermediates” (THE WELLCOME FOUNDATION LIMITED, priority 1983, dated 1984).
≈ marks a conversion by molar mass, not a printed value.

Experiments:
[1] = system: mean systemic arterial blood pressure (BP); assay: Cardiovascular actions in rats: fall in blood pressure and duration of the hypotensive effect; assay type: in vivo, male Wistar rats; conditions: for Fall in BP Relative Potency PGE1 / Fall in BP Relative Potency PGI2: anaesthetized rat, i.v. injection; for Fall in BP Relative Potency PGE1: potency ratio against PGE1; for Fall in BP Relative Potency PGI2: potency ratio against PGI2; for Duration t½: time from peak hypotensive response to recovery to half its peak, rat i.v.
Description: Anaesthesia was induced in male Wistar rats (250-300 g body weight) with sodium pentobarbitone (30 mg kg^-1, i.v.) and supplemented (3 mg kg^-1) when required. Arterial pressure was recorded from a cannulated femoral artery and heart rate derived from the arterial pulse. Rectal temperature was maintained at 37°C by thermistor-controlled radiant heat. Each compound was injected into a femoral vein in a volume of 0.25 ml and flushed in with 0.2 ml of saline (0.9% w/v). Dose-response relationships for the fall in mean systemic arterial blood pressure (BP) with the hydantoins were constructed and compared to those obtained with PGI2 and PGE, in the same animal, and a potency ratio calculated. […] Figures for Compound X and PGI2 are listed for comparison.

[2] = system: acid-ethanol induced gastric lesions; assay: Inhibition of acid-ethanol induced gastric lesions in rats (cytoprotection); assay type: in vivo; conditions: rat, oral
Description: The inhibition of acid-ethanol induced gastric lesions in rats (cytoprotection) was measured for various doses of orally administered hydantoin. Figures for compound X are given for comparison.

[3] = system: rabbit platelet aggregation; assay: Ex vivo rabbit platelet aggregation after i.v. infusion of the hydantoin (ADP 20 µM); assay type: in vivo, rabbits; conditions: i.v. infusion for 15 min, blood sample 10 min after start of infusion
Description: Male rabbits (2-2.5 kg body weight) were anaesthetized with sodium pentobarbitone (30 mg/kg, i.v. followed by maintenance doses of 3mg/kg) and systemic arterial blood pressure (BP) was recorded from a cannula filled with
heparinized saline (5 units/ml) in a carotid artery; no heparin was administered to the animal. Hydantoins were administered via a cannula in a femoral vein. Blood samples (1.5 ml) were slowly collected into a plastic syringe containing tri-sodium citrate (3.18%, 0.15 ml) from a cannula inserted into a femoral artery, shaken gently and transferred to an Eppendorf plastic tube and spun in a modified Eppendorf centrifuge for 2 sec (Model 5412, maximum centrifugal force 10,000 x g). The PRP was collected and a 0.35 ml aliquot was transferred to the aggregometer and incubated at 37°C for 1 minute prior to addition of sufficient ADP (20 µM) to produce near-maximal aggregation. The time-interval between removal of blood samples and the transference of the PRP to the aggregometer was less than 1.5 min.
Blood samples were removed at 10 min. intervals once the BP of the rabbit had reached steady resting levels, 10-20 min. following the preparative surgical procedures. After three control blood samples had been prepared and the control aggregation of the platelets measured, the hydantoin was infused intravenously for 15 min from a Braun slow-infusion apparatus. Blood samples were collected 10 min after the start of the infusion. Two further 10 min. samples post-infusion were collected prior to commencing further infusions.
The following results list values of ED50 and change in blood pressure. For comparison, also given are the results obtained upon administration of PGIZ and Compound X.

[4] = system: systemic arterial blood pressure (BP); assay: Concurrent change in systemic arterial blood pressure in anaesthetized rabbits; assay type: in vivo; conditions: for Δ BP: anaesthetized rabbit, i.v. infusion, at the ED50 dose; for blood pressure depressant activity: at the ED50 doses, rabbit, stated in words
Description: Male rabbits (2-2.5 kg body weight) were anaesthetized with sodium pentobarbitone (30 mg/kg, i.v. followed by maintenance doses of 3mg/kg) and systemic arterial blood pressure (BP) was recorded from a cannula filled with heparinized saline (5 units/ml) in a carotid artery; no heparin was administered to the animal. Hydantoins were administered via a cannula in a femoral vein. Blood samples (1.5 ml) were slowly collected into a plastic syringe containing tri-sodium citrate (3.18%, 0.15 ml) from a cannula inserted into a femoral artery, shaken gently and transferred to an Eppendorf plastic tube and spun in a modified Eppendorf centrifuge for 2 sec (Model 5412, maximum centrifugal force 10,000 x g). The PRP was collected and a 0.35 ml aliquot was transferred to the aggregometer and incubated at 37°C for 1 minute prior to addition of sufficient ADP (20 µM) to produce near-maximal aggregation. The time-interval between removal of blood samples and the transference of the PRP to the aggregometer was less than 1.5 min. […] After three control blood samples had been prepared and the control aggregation of the platelets measured, the hydantoin was infused intravenously for 15 min from a Braun slow-infusion apparatus. Blood samples were collected 10 min after the start of the infusion. Two further 10 min. samples post-infusion were collected prior to commencing further infusions. The following results list values of ED50 and change in blood pressure. For comparison, also given are the results obtained upon administration of PGIZ and Compound X.

platelet aggregation = assay: Inhibition of platelet aggregation in human platelet-rich plasma (Born-type aggregometer, ADP or other aggregating agent); assay type: cell-based; conditions: for IC50: Homo sapiens, Platelet, 1 min, 1 min incubation at 37°C before aggregating agent, read-out: IC50; for IC50 / Potency relative to PGI2: human PRP; for Potency relative to PGI2: 1 min incubation, PGI2 = 1; for Increase on Incubation (min) 5: increase in potency after 5 min incubation in PRP; for Increase on Incubation (min) 10: increase in potency after 10 min incubation in PRP
Description: Human blood was freshly collected into siliconized (Siloclad; Clay Adams) plastic (Sterilin Ltd.) vessels containing trisodium citrate (3.15%; 0.1 volume with 0.9 volume blood) and centrifuged (200 g for 15 min) at room temperature. The platelet-rich plasma (PRP) was withdrawn into plastic containers and kept at room temperature. Inhibition of […] prior to addition of sufficient adenosine diphosphate (ADP) or other aggregating agent to just cause a non-reversing control aggregation. Dose-inhibition curves were constructed for each compound and the ID50 (dose causing 50% inhibition) was calculated as the dose required to reduce the aggregation to 50% of its control amplitude. […] For comparison, also given are the results upon administration of 5-(6-carboxyhexyl)-1-(3-cyclohexyl-3-hydroxypropyl)hydantoin (Compound X) which is disclosed in UK Specification 1,595,694. -
In this and subsequent biological examples, where a compound number refers to a single diastereoisomer, a mixture of diastereoisomers is indicated by two compound numbers separated by /.

B.P. = assay: Cardiovascular studies in the dog: vasodepressor potency and duration; assay type: in vivo, Dogs; conditions: i.v. bolus
Description: Dogs (10-15 kg body weight) were anaesthetized with chloralose (80 mg/kg i.v.) and maintained with subcutaneous injections of pentobarbitone (3 mg/kg). Drugs were administered via a femoral vein by bolus injection and B.P. was recorded from the right femoral artery. Results give vasodepressor potency and t1 2 duration. Figures for Compound X are provided for comparison.

[5] = Dose 1.25 ug kg^-1, duration of vasodepressor effect

| Compound | Fall in BP Relative Potency PGE1 [1] | Fall in BP Relative Potency PGI2 [1] | Duration t½ [1] [min] | % inhibition ([2]; Dose 10 μg kg^-1) [%] | % inhibition ([2]; Dose 25 μg kg^-1) [%] | % inhibition ([2]; Dose 50 μg kg^-1) [%] | ED50 [3] [µg/kg/min] | Δ BP [4] [mmHg] | blood pressure depressant activity [4] | IC50 (platelet aggregation) [ng/mL] | Potency relative to PGI2 (platelet aggregation) | Increase on Incubation (min) 5 (platelet aggregation) | Increase on Incubation (min) 10 (platelet aggregation) | Δ BP (B.P.; Dose 0.625 ug kg^-1) [mm Hg] | t1/2 (B.P.; Dose 0.625 ug kg^-1, duration of vasodepressor effect) [min] | Δ BP (B.P.; Dose 1.25 ug kg^-1) [mm Hg] | t1/2 (B.P.; [5]) [min] | % inhibition ([2]; Dose 5 μg kg^-1) [%] | Δ BP (B.P.; Dose 2.5 ug kg^-1) [mm Hg] | t1/2 (B.P.; Dose 2.5 ug kg^-1, duration of vasodepressor effect) [min] |
| --- | --- | --- | --- | --- | --- | --- | --- | --- | --- | --- | --- | --- | --- | --- | --- | --- | --- | --- | --- | --- |
| O=C(O)CCCCCCC1C(=O)NC(=O)N1N=CC(O)C1CCCCC1 (single isomer, unassigned) [Compound No. 6, 5-(6-carboxyhe-xyl)-1-(2-cyclohexyl-2-hydroxyethylideneamino)hydantoin] | 0.5 | 0.041 | 17.0 | 31 ± 20 | 50 ± 21 | 69 ± 8 | 0.15 | 0 | no significant blood pressure depressant activity | 2 (≈ 5.44 nM) | 0.30 | x5 | x20 | -54 | 60 | -65 | >60 | – | – | – |
| O=C(O)CCCCCCC1C(=O)NC(=O)N1N=CC(O)C1CCCCC1 (stereo not shown) [Compound No. 3, 5-(6-carboxyhexyl)-1-(2-cyclohexyl-2-hydroxy-ethylideneamino)hydantoin] | 0.324 | 0.027 | 11.0 | – | – | – | 2.0 | 0 | no significant blood pressure depressant activity | 16 (≈ 43.5 nM) | 0.02 | x7 | x20 | – | – | – | – | – | – | – |
| O=C(O)CCCCCCC1C(=O)NC(=O)N1CCC(O)C1CCCCC1 (stereo not shown) [Compound X, 5-(6-carboxyhexyl)-1-(3-cyclohexyl-3-hydroxypropyl)hydantoin, reference compound] | 0.72 | 0.06 | 4.0 | 80 ± 9 | 89 ± 6 | – | 3.3 | -5 | – | 1.5 (≈ 4.07 nM) | 0.21 | x2 | x3 | – | – | -45 | 2.8 | 46 ± 26 | -56 | 6.2 |
